How the values were obtained:
[1] = target: Protein kinase C theta type (Homo sapiens) (UniProt Q04759); test: Inhibition of human PKCtheta at 18.6 nM by HotSpot assay relative to control
[2] = target: Casein kinase I isoform gamma-2 (Homo sapiens) (UniProt P78368); test: Inhibition of human CK1g2 at 18.6 nM by HotSpot assay relative to control
[3] = target: Ribosomal protein S6 kinase beta-2 (Homo sapiens) (UniProt Q9UBS0); test: Inhibition of human RPS6KB2 at 18.6 nM by HotSpot assay relative to control
[4] = target: Serine/threonine-protein kinase Chk2 (Homo sapiens) (UniProt O96017); test: Inhibition of human CHK2 at 18.6 nM by HotSpot assay relative to control
[5] = target: Casein kinase I isoform alpha (Homo sapiens) (UniProt P48729); test: Inhibition of human CK1a1 at 18.6 nM by HotSpot assay relative to control
[6] = target: T1, Protein kinase C epsilon type (Homo sapiens) (UniProt Q02156); test: Inhibition of human PKCepsilon at 18.6 nM by HotSpot assay relative to control
T1 sequence (whole entry): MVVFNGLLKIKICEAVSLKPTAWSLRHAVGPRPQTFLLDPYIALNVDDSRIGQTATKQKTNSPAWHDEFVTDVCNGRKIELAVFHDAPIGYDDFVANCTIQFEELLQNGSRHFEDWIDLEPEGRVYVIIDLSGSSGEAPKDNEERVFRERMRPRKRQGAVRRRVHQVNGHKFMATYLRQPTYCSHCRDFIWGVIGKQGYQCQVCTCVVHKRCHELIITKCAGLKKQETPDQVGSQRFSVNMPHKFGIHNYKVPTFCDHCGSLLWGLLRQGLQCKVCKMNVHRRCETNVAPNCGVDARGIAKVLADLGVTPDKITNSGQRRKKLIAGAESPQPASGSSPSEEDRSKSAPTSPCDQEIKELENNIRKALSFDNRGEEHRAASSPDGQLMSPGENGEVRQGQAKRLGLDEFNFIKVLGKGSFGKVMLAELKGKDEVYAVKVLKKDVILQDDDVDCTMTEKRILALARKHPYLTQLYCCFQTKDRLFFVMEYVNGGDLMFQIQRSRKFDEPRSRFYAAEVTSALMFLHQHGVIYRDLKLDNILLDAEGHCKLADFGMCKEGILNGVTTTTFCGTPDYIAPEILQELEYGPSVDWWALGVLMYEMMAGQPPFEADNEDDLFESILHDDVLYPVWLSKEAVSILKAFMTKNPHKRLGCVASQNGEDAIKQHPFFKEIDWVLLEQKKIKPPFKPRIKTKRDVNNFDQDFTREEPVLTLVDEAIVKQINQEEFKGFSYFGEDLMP

[7] = target: ALK tyrosine kinase receptor (Homo sapiens) (UniProt Q9UM73); test: Inhibition of human ALK at 18.6 nM by HotSpot assay relative to control
[8] = target: G protein-coupled receptor kinase 5 (Homo sapiens) (UniProt P34947); test: Inhibition of human GRK5 at 18.6 nM by HotSpot assay relative to control
[9] = target: RAF proto-oncogene serine/threonine-protein kinase (Homo sapiens) (UniProt P04049); test: Inhibition of human RAF1 at 1.82 nM by HotSpot assay relative to control
[10] = target: Calcium/calmodulin-dependent protein kinase type 1B (Homo sapiens) (UniProt Q6P2M8); test: Inhibition of human CAMK1b at 1.82 nM by HotSpot assay relative to control
[11] = target: Tyrosine-protein kinase HCK (Homo sapiens) (UniProt P08631); test: Inhibition of human HCK at 1.82 nM by HotSpot assay relative to control
[12] = target: Cyclin-dependent kinase 4/cyclin D1 (Homo sapiens) (UniProt P11802+P24385); test: Inhibition of human CDK4/cyclin D1 at 1.82 nM by HotSpot assay relative to control; assay type: protein-complex assay
[13] = target: Serine/threonine-protein kinase PAK 1 (Homo sapiens) (UniProt Q13153); test: Inhibition of human PAK1 at 1.82 nM by HotSpot assay relative to control
[14] = target: Death-associated protein kinase 2 (Homo sapiens) (UniProt Q9UIK4); test: Inhibition of human DAPK2 at 1.82 nM by HotSpot assay relative to control
[15] = target: T2, Serine/threonine-protein kinase Sgk1 (Homo sapiens) (UniProt O00141); test: Inhibition of human SGK1 at 1.82 nM by HotSpot assay relative to control
T2 sequence (whole entry): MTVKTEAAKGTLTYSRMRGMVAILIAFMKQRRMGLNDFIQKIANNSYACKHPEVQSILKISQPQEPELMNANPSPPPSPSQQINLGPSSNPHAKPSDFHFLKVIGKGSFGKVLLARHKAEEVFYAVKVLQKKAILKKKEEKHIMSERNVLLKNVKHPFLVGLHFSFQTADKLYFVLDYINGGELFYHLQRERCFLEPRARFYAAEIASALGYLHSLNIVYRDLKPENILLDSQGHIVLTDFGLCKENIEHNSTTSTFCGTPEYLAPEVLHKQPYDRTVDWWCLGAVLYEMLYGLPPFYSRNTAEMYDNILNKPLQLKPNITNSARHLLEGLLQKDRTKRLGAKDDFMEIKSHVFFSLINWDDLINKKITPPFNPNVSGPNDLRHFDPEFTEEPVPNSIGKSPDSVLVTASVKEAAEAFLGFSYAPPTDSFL

[16] = target: Receptor tyrosine-protein kinase erbB-2 (Homo sapiens) (UniProt P04626); test: Inhibition of human ERBB2 at 1.82 nM by HotSpot assay relative to control
[17] = target: Vascular endothelial growth factor receptor 3 (Homo sapiens) (UniProt P35916); test: Inhibition of human FLT4 at 1.82 nM by HotSpot assay relative to control
[18] = target: G protein-coupled receptor kinase 5 (Homo sapiens) (UniProt P34947); test: Inhibition of human GRK5 at 1.82 nM by HotSpot assay relative to control
[19] = target: T3, Activin receptor type-1 (Homo sapiens) (UniProt Q04771); test: Inhibition of human ALK2 at 1.82 nM by HotSpot assay relative to control
T3 sequence (whole entry): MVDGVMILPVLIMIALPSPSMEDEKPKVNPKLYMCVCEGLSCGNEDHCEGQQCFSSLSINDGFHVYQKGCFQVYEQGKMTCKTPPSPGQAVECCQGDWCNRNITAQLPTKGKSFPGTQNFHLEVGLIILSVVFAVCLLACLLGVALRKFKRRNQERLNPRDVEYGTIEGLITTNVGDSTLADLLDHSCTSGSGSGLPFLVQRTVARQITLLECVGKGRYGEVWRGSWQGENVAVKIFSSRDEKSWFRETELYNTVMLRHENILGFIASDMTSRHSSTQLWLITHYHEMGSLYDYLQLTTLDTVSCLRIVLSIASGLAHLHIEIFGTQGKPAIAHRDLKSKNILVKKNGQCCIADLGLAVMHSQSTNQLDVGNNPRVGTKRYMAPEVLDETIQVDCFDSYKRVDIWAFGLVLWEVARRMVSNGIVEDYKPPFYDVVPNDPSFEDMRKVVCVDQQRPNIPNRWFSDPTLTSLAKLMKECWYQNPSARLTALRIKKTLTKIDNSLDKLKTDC

G protein-coupled receptor kinase 5 (Homo sapiens), sequence (P34947 whole entry, looked up): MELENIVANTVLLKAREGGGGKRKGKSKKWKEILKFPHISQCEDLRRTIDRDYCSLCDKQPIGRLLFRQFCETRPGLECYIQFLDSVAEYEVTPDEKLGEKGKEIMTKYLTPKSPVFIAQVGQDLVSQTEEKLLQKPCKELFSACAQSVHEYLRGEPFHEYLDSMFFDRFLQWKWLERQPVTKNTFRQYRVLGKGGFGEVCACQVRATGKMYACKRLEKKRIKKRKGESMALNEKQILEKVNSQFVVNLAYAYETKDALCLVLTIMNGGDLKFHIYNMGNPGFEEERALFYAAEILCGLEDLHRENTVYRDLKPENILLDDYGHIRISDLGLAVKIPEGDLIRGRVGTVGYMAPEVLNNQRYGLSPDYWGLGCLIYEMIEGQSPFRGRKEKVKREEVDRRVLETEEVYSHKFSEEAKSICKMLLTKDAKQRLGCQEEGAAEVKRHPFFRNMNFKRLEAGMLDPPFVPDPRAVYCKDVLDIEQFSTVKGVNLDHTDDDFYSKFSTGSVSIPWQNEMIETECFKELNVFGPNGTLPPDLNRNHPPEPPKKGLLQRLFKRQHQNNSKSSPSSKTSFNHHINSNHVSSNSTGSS
Serine/threonine-protein kinase Chk2 (Homo sapiens), sequence (O96017 whole entry, canonical isoform): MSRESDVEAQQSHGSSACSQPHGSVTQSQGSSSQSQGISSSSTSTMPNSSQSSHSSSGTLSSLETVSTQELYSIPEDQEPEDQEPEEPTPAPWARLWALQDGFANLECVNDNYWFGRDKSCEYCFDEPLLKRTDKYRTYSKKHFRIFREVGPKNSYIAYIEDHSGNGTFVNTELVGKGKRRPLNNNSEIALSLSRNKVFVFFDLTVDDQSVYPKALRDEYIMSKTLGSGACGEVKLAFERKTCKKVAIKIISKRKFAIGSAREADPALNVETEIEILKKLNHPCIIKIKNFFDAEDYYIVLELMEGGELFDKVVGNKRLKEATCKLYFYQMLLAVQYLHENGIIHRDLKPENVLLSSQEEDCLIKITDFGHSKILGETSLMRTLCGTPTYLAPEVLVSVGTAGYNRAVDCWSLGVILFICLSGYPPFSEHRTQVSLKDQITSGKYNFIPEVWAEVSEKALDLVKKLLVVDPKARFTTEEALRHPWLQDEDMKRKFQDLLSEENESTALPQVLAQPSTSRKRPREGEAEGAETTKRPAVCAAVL
RAF proto-oncogene serine/threonine-protein kinase (Homo sapiens), sequence (P04049 whole entry): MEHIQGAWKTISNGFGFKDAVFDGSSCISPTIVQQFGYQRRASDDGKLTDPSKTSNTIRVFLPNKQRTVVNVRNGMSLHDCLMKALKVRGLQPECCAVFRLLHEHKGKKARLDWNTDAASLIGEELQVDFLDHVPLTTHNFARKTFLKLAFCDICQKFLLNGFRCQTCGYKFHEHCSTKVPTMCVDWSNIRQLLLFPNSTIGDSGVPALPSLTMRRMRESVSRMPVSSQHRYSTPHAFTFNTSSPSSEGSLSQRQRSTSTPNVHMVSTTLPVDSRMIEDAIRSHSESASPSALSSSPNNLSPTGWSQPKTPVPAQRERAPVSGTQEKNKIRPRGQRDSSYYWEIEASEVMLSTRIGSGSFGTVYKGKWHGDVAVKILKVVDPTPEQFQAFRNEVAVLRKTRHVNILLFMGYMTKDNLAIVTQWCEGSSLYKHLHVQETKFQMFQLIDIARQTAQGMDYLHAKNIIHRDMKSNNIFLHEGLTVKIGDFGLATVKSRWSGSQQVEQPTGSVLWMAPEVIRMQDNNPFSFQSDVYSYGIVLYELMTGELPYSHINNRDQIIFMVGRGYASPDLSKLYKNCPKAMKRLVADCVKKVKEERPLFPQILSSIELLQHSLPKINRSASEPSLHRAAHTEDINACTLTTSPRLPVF
Casein kinase I isoform alpha (Homo sapiens), sequence (P48729 2-337 limits assumed): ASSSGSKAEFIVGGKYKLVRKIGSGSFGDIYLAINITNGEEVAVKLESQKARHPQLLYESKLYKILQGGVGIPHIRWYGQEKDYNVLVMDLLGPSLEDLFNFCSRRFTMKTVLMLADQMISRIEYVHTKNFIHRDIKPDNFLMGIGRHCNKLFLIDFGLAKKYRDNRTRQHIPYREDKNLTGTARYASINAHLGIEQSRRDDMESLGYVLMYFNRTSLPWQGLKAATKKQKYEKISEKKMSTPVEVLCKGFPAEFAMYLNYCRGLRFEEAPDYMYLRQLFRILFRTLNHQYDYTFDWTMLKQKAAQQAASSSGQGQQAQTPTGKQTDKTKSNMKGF
Ribosomal protein S6 kinase beta-2 (Homo sapiens), sequence (Q9UBS0 whole entry): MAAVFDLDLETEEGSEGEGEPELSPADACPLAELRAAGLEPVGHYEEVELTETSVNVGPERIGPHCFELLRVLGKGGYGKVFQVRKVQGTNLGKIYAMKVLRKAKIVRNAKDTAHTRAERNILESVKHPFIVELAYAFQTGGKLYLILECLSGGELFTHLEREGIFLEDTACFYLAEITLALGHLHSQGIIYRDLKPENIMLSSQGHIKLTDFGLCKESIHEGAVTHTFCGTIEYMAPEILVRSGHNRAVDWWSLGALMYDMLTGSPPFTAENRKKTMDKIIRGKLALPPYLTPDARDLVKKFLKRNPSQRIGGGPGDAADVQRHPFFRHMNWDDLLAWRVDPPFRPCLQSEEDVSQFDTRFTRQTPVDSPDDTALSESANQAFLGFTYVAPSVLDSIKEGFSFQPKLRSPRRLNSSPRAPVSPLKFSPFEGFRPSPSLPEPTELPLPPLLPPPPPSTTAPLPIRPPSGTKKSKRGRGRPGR
ALK tyrosine kinase receptor (Homo sapiens), sequence (Q9UM73 19-1620 limits assumed): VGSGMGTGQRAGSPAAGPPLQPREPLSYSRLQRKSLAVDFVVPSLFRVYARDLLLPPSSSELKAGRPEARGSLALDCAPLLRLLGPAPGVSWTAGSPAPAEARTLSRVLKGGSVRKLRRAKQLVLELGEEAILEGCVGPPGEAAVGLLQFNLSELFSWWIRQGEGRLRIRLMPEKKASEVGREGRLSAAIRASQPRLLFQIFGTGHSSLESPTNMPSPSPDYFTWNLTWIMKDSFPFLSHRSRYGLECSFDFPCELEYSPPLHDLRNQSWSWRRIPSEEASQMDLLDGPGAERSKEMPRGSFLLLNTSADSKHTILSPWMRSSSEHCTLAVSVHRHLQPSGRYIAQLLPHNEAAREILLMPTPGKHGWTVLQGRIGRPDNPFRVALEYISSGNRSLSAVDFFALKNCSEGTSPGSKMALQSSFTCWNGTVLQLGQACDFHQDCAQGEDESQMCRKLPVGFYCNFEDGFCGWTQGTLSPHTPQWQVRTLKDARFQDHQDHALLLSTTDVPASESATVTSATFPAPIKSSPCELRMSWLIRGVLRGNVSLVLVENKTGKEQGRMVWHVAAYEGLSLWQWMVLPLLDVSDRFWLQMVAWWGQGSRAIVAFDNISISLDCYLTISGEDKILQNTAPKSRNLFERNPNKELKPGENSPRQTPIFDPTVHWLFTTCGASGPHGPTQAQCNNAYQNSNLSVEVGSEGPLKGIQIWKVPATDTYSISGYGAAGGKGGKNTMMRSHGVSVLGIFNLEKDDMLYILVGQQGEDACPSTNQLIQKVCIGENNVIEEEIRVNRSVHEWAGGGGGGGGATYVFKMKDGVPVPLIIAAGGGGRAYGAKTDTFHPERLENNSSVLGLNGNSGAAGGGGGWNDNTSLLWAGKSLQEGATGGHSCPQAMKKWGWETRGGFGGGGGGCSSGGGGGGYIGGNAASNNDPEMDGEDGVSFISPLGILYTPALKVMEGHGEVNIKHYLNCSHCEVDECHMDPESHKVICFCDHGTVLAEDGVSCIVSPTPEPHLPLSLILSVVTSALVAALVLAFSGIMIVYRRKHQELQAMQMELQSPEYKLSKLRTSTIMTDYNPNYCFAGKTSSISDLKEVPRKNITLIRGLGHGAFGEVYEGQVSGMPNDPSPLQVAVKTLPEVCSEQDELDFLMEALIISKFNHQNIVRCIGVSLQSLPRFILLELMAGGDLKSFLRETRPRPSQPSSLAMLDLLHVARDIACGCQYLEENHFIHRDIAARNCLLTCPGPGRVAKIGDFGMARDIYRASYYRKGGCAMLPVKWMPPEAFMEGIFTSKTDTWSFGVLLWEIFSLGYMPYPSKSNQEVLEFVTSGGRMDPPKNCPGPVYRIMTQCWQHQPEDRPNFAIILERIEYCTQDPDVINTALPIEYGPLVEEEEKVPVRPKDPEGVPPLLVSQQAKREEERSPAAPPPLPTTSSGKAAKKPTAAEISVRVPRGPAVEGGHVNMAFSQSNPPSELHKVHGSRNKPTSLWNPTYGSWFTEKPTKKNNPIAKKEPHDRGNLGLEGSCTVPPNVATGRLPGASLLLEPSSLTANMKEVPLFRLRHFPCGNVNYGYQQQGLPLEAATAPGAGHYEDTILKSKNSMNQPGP
Serine/threonine-protein kinase PAK 1 (Homo sapiens), sequence (Q13153 whole entry): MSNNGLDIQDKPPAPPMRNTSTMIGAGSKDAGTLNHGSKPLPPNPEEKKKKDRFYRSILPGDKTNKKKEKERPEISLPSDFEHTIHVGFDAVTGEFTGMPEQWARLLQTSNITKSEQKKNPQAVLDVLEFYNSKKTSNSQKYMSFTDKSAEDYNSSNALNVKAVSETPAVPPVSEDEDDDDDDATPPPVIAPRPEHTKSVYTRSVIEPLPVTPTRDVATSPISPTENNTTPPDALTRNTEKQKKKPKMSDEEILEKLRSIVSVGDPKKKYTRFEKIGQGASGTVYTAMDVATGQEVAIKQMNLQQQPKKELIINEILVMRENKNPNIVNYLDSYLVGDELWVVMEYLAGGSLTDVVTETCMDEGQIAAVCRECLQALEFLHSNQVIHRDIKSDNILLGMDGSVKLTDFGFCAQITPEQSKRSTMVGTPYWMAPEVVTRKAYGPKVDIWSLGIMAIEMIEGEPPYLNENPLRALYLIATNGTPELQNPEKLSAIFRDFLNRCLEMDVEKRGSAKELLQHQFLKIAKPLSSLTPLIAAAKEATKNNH

Compound | inhibition [1] [%] | inhibition [2] [%] | inhibition [3] [%] | inhibition [4] [%] | inhibition [5] [%] | inhibition [6] [%] | inhibition [7] [%] | inhibition [8] [%] | inhibition [9] [%] | inhibition [10] [%] | inhibition [11] [%] | inhibition [12] [%] | inhibition [13] [%] | inhibition [14] [%] | inhibition [15] [%] | inhibition [16] [%] | inhibition [17] [%] | inhibition [18] [%] | inhibition [19] [%]
C[C@]1(O)C[C@@H](c2nc(-c3ccc4ccc(-c5ccccc5)nc4c3)c3c(N)nccn32)C1 | -9.99 | -6.22 | 0.94 | 0.83 | 4.32 | -9.61 | -6.1 | -6.77 |  |  |  |  |  |  |  |  |  |  | 
C[C@@]1(C(=O)Nc2ccc(F)nc2)CCCN1c1nc(Nc2cc(C3CC3)n[nH]2)c2cccn2n1 |  |  |  |  |  |  |  |  | -9.08 | -2.9 | 9.36 | -5.89 | 1.83 | -1.36 | -2.56 | 5.5 | -6.12 | 1.88 | 5.9

From ChEMBL document CHEMBL5653615 (J Biol Chem, 2013)
